Laboratory results as given in ChEMBL document CHEMBL1156251, “Structure--activity relationships of polymyxin antibiotics” (J Med Chem, 2010).
Values after ≈ are worked out from the molar mass of the structure shown.

How the values were obtained:
Escherichia coli [1] = assay: Antimicrobial activity against Escherichia coli K-12; type: functional
Escherichia coli [2] = assay: Antimicrobial activity against Escherichia coli; type: functional
Pseudomonas aeruginosa [3] = assay: Antimicrobial activity against Pseudomonas aeruginosa; type: functional, organism-based
Salmonella enterica = assay: Antimicrobial activity against Salmonella enterica; type: functional
Staphylococcus aureus = assay: Antimicrobial activity against Staphylococcus aureus; type: functional
Lipopolysaccharide (LPS) [4] = assay: Displacement of dansyl-PMB from LPS by isothermal titration calorimetry
Escherichia coli [5] = assay: Antimicrobial activity against Escherichia coli assessed as relative sensitizing activity; type: functional
Lipopolysaccharide (LPS) [6] = assay: Displacement of dansyl-PMB from LPS by fluorometric assay
Mus musculus = assay: Acute toxicity in iv dosed mouse; type: organism-based; conditions: in vivo
Pseudomonas aeruginosa [7] = test system: Pseudomonas aeruginosa

Compound: CCCCCCCCC(=O)N[C@H](C(=O)N[C@@H](CCN)C(=O)N[C@H]1CCNC(=O)[C@H]([C@@H](C)O)NC(=O)[C@H](CCN)NC(=O)[C@H](CCN)NC(=O)[C@H](CC(C)C)NC(=O)[C@@H](CC(C)C)NC(=O)[C@H](CCN)NC1=O)[C@@H](C)O
- MIC (Escherichia coli [1]): 12 µg/mL (≈ 11.2 µM)

Compound: CCCCCCCCCCC(=O)N[C@H](C(=O)N[C@@H](CCN)C(=O)N[C@H]1CCNC(=O)[C@H]([C@@H](C)O)NC(=O)[C@H](CCN)NC(=O)[C@H](CCN)NC(=O)[C@H](CC(C)C)NC(=O)[C@@H](CC(C)C)NC(=O)[C@H](CCN)NC1=O)[C@@H](C)O
- MIC (Escherichia coli [1]): 3 µg/mL (≈ 2.73 µM)

Compound: CCC(C)CCCCCC(=O)N[C@H](C(=O)N[C@@H](CCN)C(=O)N[C@H]1CCNC(=O)[C@H]([C@@H](C)O)NC(=O)[C@H](CCN)NC(=O)[C@H](CCN)NC(=O)[C@H](CC(C)C)NC(=O)[C@@H](CC(C)C)NC(=O)[C@H](CCN)NC1=O)[C@@H](C)O (some centres undefined)
- MIC (Escherichia coli [1]): 50 µg/mL (≈ 46.2 µM)

Compound: CCCCCCCCCCCC(=O)N[C@H](C(=O)N[C@@H](CCN)C(=O)N[C@H]1CCNC(=O)[C@H]([C@@H](C)O)NC(=O)[C@H](CCN)NC(=O)[C@H](CCN)NC(=O)[C@H](CC(C)C)NC(=O)[C@@H](CC(C)C)NC(=O)[C@H](CCN)NC1=O)[C@@H](C)O
- MIC (Escherichia coli [1]): 3 µg/mL (≈ 2.7 µM)

Compound: CCCCCCCCCC(=O)N[C@H](C(=O)N[C@@H](CCN)C(=O)N[C@H]1CCNC(=O)[C@H]([C@@H](C)O)NC(=O)[C@H](CCN)NC(=O)[C@H](CCN)NC(=O)[C@H](CC(C)C)NC(=O)[C@@H](CC(C)C)NC(=O)[C@H](CCN)NC1=O)[C@@H](C)O
- MIC (Escherichia coli [1]): 3 µg/mL (≈ 2.77 µM)

Compound: CCCCCCCCCCCCCC(=O)N[C@H](C(=O)N[C@@H](CCN)C(=O)N[C@H]1CCNC(=O)[C@H]([C@@H](C)O)NC(=O)[C@H](CCN)NC(=O)[C@H](CCN)NC(=O)[C@H](CC(C)C)NC(=O)[C@@H](CC(C)C)NC(=O)[C@H](CCN)NC1=O)[C@@H](C)O
- MIC (Escherichia coli [2]): 4 µM
- MIC (Pseudomonas aeruginosa [3]): 4 µM
- MIC (Escherichia coli [1]): 12 µg/mL (≈ 10.5 µM)
- MIC (Salmonella enterica): 2 µM (≈ 2.28 µg/mL)

Compound: CCC(C)CCCCCCC(=O)N[C@H](C(=O)N[C@@H](CCN)C(=O)N[C@H]1CCNC(=O)[C@H]([C@@H](C)O)NC(=O)[C@H](CCN)NC(=O)[C@H](CCN)NC(=O)[C@H](CC(C)C)NC(=O)[C@@H](CC(C)C)NC(=O)[C@H](CCN)NC1=O)[C@@H](C)O (some centres undefined)
- MIC (Escherichia coli [1]): 25 µg/mL (≈ 22.8 µM)

Compound: CCCCCCCCC(=O)N[C@H](C(=O)N[C@@H](CCN)C(=O)N[C@H]1CCNC(=O)[C@H]([C@@H](C)O)NC(=O)[C@H](CCN)NC(=O)[C@H](CCN)NC(=O)[C@H](CC(C)C)NC(=O)[C@@H](Cc2ccccc2)NC(=O)[C@H](CCN)NC1=O)[C@@H](C)O
- MIC (Staphylococcus aureus): ≥ 16 µg/mL
- MIC (Escherichia coli [2]): 0.5 µg/mL
- MIC (Pseudomonas aeruginosa [3]): 2 µg/mL

Compound: CC(C)C[C@@H]1NC(=O)[C@@H](Cc2ccccc2)NC(=O)[C@H](CCCCN)NC(=O)CN(C(=O)[C@H](CCCCN)NC(=O)[C@@H](N)[C@@H](C)O)CCCCNC(=O)[C@@H]([C@H](C)O)NC(=O)[C@H](CCCCN)NC(=O)[C@H](CCCCN)NC1=O
- IC50 (Lipopolysaccharide (LPS) [4]; read-out: IC50): 35 µM
- Activity (Escherichia coli [5]): 4%

Compound: CC(C)C[C@@H]1NC(=O)[C@@H](Cc2ccccc2)NC(=O)[C@H](CCCCN)NC(=O)[C@@H](NC(=O)[C@H](CCCCN)NC(=O)[C@@H](N)[C@@H](C)O)CCNC(=O)[C@H]([C@@H](C)O)NC(=O)[C@H](CCCCN)NC(=O)[C@H](CCCCN)NC1=O
- IC50 (Lipopolysaccharide (LPS) [4]; read-out: IC50): 30 µM
- Activity (Escherichia coli [5]): 5%

Compound: CC(C)C[C@@H]1NC(=O)[C@@H](Cc2ccccc2)NC(=O)[C@H](CCCN)NC(=O)CN(C(=O)[C@H](CCCN)NC(=O)[C@@H](N)[C@@H](C)O)CCCNC(=O)[C@@H]([C@H](C)O)NC(=O)[C@H](CCCN)NC(=O)[C@H](CCCN)NC1=O
- IC50 (Lipopolysaccharide (LPS) [4]; read-out: IC50): 25 µM
- Activity (Escherichia coli [5]): 2%

Compound: CCNCC[C@H](NC(=O)CCCCC(C)CC)C(=O)N[C@H](C(=O)N[C@@H](CCN)C(=O)N[C@H]1CCNC(=O)[C@H]([C@@H](C)O)NC(=O)[C@H](CCN)NC(=O)[C@H](CCN)NC(=O)[C@H](CC(C)C)NC(=O)[C@@H](Cc2ccccc2)NC(=O)[C@H](CCN)NC1=O)[C@@H](C)O (some centres undefined)
- MIC (Escherichia coli [2]): 0.112 µg/mL
- MIC (Pseudomonas aeruginosa [3]): 0.146 µg/mL
- dansyl-PMB displacement concentration (Lipopolysaccharide (LPS) [6]): 2.3 µg/mL

Compound: CCC(C)CCCCC(=O)N[C@@H](CCNC(=O)C(N)CCCCNC(=O)OCc1ccccc1)C(=O)N[C@H](C(=O)N[C@@H](CCN)C(=O)N[C@H]1CCNC(=O)[C@H]([C@@H](C)O)NC(=O)[C@H](CCN)NC(=O)[C@H](CCN)NC(=O)[C@H](CC(C)C)NC(=O)[C@@H](Cc2ccccc2)NC(=O)[C@H](CCN)NC1=O)[C@@H](C)O (some centres undefined)
- MIC (Escherichia coli [2]): 0.206 µg/mL
- MIC (Pseudomonas aeruginosa [3]): 0.175 µg/mL
- dansyl-PMB displacement concentration (Lipopolysaccharide (LPS) [6]): 1.12 µg/mL

Compound: CCCNCC[C@H](NC(=O)CCCCC(C)CC)C(=O)N[C@H](C(=O)N[C@@H](CCN)C(=O)N[C@H]1CCNC(=O)[C@H]([C@@H](C)O)NC(=O)[C@H](CCN)NC(=O)[C@H](CCN)NC(=O)[C@H](CC(C)C)NC(=O)[C@@H](Cc2ccccc2)NC(=O)[C@H](CCN)NC1=O)[C@@H](C)O (some centres undefined)
- MIC (Escherichia coli [2]): 0.208 µg/mL
- MIC (Pseudomonas aeruginosa [3]): 0.206 µg/mL
- dansyl-PMB displacement concentration (Lipopolysaccharide (LPS) [6]): 2.4 µg/mL

Compound: CCC(C)CCCCC(=O)N[C@@H](CCNC(=O)C(N)CCCNC(=N)N)C(=O)N[C@H](C(=O)N[C@@H](CCN)C(=O)N[C@H]1CCNC(=O)[C@H]([C@@H](C)O)NC(=O)[C@H](CCN)NC(=O)[C@H](CCN)NC(=O)[C@H](CC(C)C)NC(=O)[C@@H](Cc2ccccc2)NC(=O)[C@H](CCN)NC1=O)[C@@H](C)O (some centres undefined)
- MIC (Escherichia coli [2]): 0.453 µg/mL
- MIC (Pseudomonas aeruginosa [3]): 0.207 µg/mL
- dansyl-PMB displacement concentration (Lipopolysaccharide (LPS) [6]): 4.48 µg/mL

Compound: CCC(C)CCCCC(=O)N[C@@H](CCNC(C)=O)C(=O)N[C@H](C(=O)N[C@@H](CCN)C(=O)N[C@H]1CCNC(=O)[C@H]([C@@H](C)O)NC(=O)[C@H](CCN)NC(=O)[C@H](CCN)NC(=O)[C@H](CC(C)C)NC(=O)[C@@H](Cc2ccccc2)NC(=O)[C@H](CCN)NC1=O)[C@@H](C)O (some centres undefined)
- MIC (Escherichia coli [2]): 1.3 µg/mL
- MIC (Pseudomonas aeruginosa [3]): 2.8 µg/mL
- dansyl-PMB displacement concentration (Lipopolysaccharide (LPS) [6]): 2.8 µg/mL

Compound: CCNCC[C@@H]1NC(=O)[C@H](CCN)NC(=O)[C@H](CC(C)C)NC(=O)[C@@H](Cc2ccccc2)NC(=O)[C@H](CCN)NC(=O)[C@@H](NC(=O)[C@H](CCN)NC(=O)[C@@H](NC(=O)[C@H](CCN)NC(=O)CCCCC(C)CC)[C@@H](C)O)CCNC(=O)[C@H]([C@@H](C)O)NC1=O (some centres undefined)
- MIC (Escherichia coli [2]): 0.492 µg/mL
- MIC (Pseudomonas aeruginosa [3]): 0.413 µg/mL
- dansyl-PMB displacement concentration (Lipopolysaccharide (LPS) [6]): 9.5 µg/mL

Compound: CCC(C)CCCCC(=O)N[C@@H](CCNC(=O)CN)C(=O)N[C@H](C(=O)N[C@@H](CCN)C(=O)N[C@H]1CCNC(=O)[C@H]([C@@H](C)O)NC(=O)[C@H](CCN)NC(=O)[C@H](CCN)NC(=O)[C@H](CC(C)C)NC(=O)[C@@H](Cc2ccccc2)NC(=O)[C@H](CCN)NC1=O)[C@@H](C)O (some centres undefined)
- MIC (Escherichia coli [2]): 0.028 µg/mL
- MIC (Pseudomonas aeruginosa [3]): 0.033 µg/mL
- dansyl-PMB displacement concentration (Lipopolysaccharide (LPS) [6]): 8 µg/mL

Compound: CCCNCC[C@@H]1NC(=O)[C@H](CCN)NC(=O)[C@H](CC(C)C)NC(=O)[C@@H](Cc2ccccc2)NC(=O)[C@H](CCN)NC(=O)[C@@H](NC(=O)[C@H](CCN)NC(=O)[C@@H](NC(=O)[C@H](CCN)NC(=O)CCCCC(C)CC)[C@@H](C)O)CCNC(=O)[C@H]([C@@H](C)O)NC1=O (some centres undefined)
- MIC (Escherichia coli [2]): 0.995 µg/mL
- MIC (Pseudomonas aeruginosa [3]): 0.763 µg/mL
- dansyl-PMB displacement concentration (Lipopolysaccharide (LPS) [6]): 9.5 µg/mL

Compound: CCCCCCCC(=O)N[C@H](C(=O)N[C@@H](CCN)C(=O)N[C@H]1CCNC(=O)[C@H]([C@@H](C)O)NC(=O)[C@H](CCN)NC(=O)[C@H](CCN)NC(=O)[C@H](CC(C)C)NC(=O)[C@@H](Cc2ccccc2)NC(=O)[C@H](CCN)NC1=O)[C@@H](C)O (stereo in doubt; 80) [Octanoyl Polymixin B nonapeptide]
- MIC (Staphylococcus aureus): ≥ 16 µg/mL
- MIC (Escherichia coli [2]): 0.03 µg/mL
- MIC (Pseudomonas aeruginosa [3]): 4 µg/mL

Compound: CC(C)C[C@@H]1NC(=O)[C@@H](Cc2ccccc2)NC(=O)[C@H](CCN)NC(=O)[C@@H](NC(=O)[C@H](CCN)NC(=O)[C@@H](N)[C@@H](C)O)CCNC(=O)[C@H]([C@@H](C)O)NC(=O)[C@H](CCN)NC(=O)[C@H](CCN)NC1=O (stereo in doubt; 202) [POLYMYXIN B NONAPEPTIDE]
- IC50 (Lipopolysaccharide (LPS) [4]; read-out: IC50): 8 µM
- Activity (Escherichia coli [5]): 5%

Compound: CCCCCCCCCC(=O)N[C@H](C(=O)N[C@@H](CCN)C(=O)N[C@H]1CCNC(=O)[C@H]([C@@H](C)O)NC(=O)[C@H](CCN)NC(=O)[C@H](CCN)NC(=O)[C@H](CC(C)C)NC(=O)[C@@H](Cc2ccccc2)NC(=O)[C@H](CCN)NC1=O)[C@@H](C)O [DECANOYL POLYMIXIN B NONAPEPTIDE]
- MIC (Staphylococcus aureus): ≥ 16 µg/mL
- MIC (Escherichia coli [2]): 1 µg/mL
- MIC (Pseudomonas aeruginosa [3]): 2 µg/mL

Compound: CC(C)C[C@@H]1NC(=O)[C@@H](Cc2ccccc2)NC(=O)[C@H](CCN)NC(=O)[C@@H](NC(=O)[C@H](CCN)NC(=O)[C@@H](NC(=O)[C@H](CN)NC(=O)O)[C@@H](C)O)CCNC(=O)[C@H]([C@@H](C)O)NC(=O)[C@H](CCN)NC(=O)[C@H](CCN)NC1=O [DESFA-[DIAMINOPROPANOIC ACID1]POLYMYXIN B]
- MIC (Escherichia coli [2]): 8 µM
- IC50 (Lipopolysaccharide (LPS) [4]): 14 µM
- MIC (Pseudomonas aeruginosa [3]): 1 µM
- MIC (Salmonella enterica): 16 µM (≈ 17.5 µg/mL)
- LD50 (Mus musculus): 23.5 µM/g

Compound: CC(C)C[C@@H]1NC(=O)[C@@H](Cc2ccccc2)NC(=O)[C@H](CCN)NC(=O)[C@@H](NC(=O)[C@H](CCN)NC(=O)[C@@H](NC(=O)[C@H](Cc2c[nH]c3ccccc23)NC(=O)O)[C@@H](C)O)CCNC(=O)[C@H]([C@@H](C)O)NC(=O)[C@H](CCN)NC(=O)[C@H](CCN)NC1=O [DESFA-[TRP1]POLYMYXIN B]
- MIC (Escherichia coli [2]): 8 µM
- IC50 (Lipopolysaccharide (LPS) [4]): 20 µM
- MIC (Pseudomonas aeruginosa [3]): 8 µM
- MIC (Salmonella enterica): 8 µM (≈ 9.55 µg/mL)
- LD50 (Mus musculus): 19 µM/g

Compound: POLYMYXIN B
- MIC (Escherichia coli [2]): 1 µM
- MIC (Salmonella enterica): 1 µM
- MIC (Pseudomonas aeruginosa [7]): 1 µM
